# Assays:
# [1] = target: T1, CLN8 (tag-cleaved, codon-optimised human CLN8 from yeast) (Homo sapiens, UniProt Q9UBY8); test: cryo-EM structure, […] A; assay type: binding; conditions: co-purified; transmembrane pocket of each monomer at the dimer interface, not the active site
# T1 construct: full-length, C-terminal 6xHis tag cut with Factor Xa; expressed in S. cerevisiae W303.1B; homodimer in LMNG; residues 1-15 and 261-286 disordered
# [2] = target: T1, CLN8 (tag-cleaved, codon-optimised human CLN8 from yeast); test: cryo-EM structure, […] A; assay type: binding; conditions: covalent acyl-enzyme intermediate at H138 proposed (continuous density not resolved), CoA at the dimer interface, incubated with 100 uM
smiles,measurement,setting,value
CC(C)(COP(=O)(O)OP(=O)(O)OC[C@H]1O[C@@H](n2cnc3c(N)ncnc32)[C@H](O)[C@@H]1OP(=O)(O)O)[C@@H](O)C(=O)NCCC(=O)NCCS [CoA],"cryo-EM structure, 3.65 A",[1],we observed two coenzyme A (CoA) molecules bound in pockets located within the transmembrane region
CC/C=C\C/C=C\C/C=C\C/C=C\C/C=C\C/C=C\CCC(=O)SCCNC(=O)CCNC(=O)[C@H](O)C(C)(C)COP(=O)(O)OP(=O)(O)OC[C@H]1O[C@@H](n2cnc3c(N)ncnc32)[C@H](O)[C@@H]1OP(=O)(O)O [C22:6-CoA],"cryo-EM structure, 2.7 A",[2]; C22:6 chain modelled in the active site,we determined cryo-EM structures of CLN8 prepared in the presence of either C18:1-CoA or C22:6-CoA
CCCCCCCC/C=C\CCCCCCCC(=O)SCCNC(=O)CCNC(=O)[C@H](O)C(C)(C)COP(=O)(O)OP(=O)(O)OC[C@H]1O[C@@H](n2cnc3c(N)ncnc32)[C@H](O)[C@@H]1OP(=O)(O)O [C18:1-CoA],"cryo-EM structure, 2.7 A",[2]; oleoyl chain modelled in the active site,we determined cryo-EM structures of CLN8 prepared in the presence of either C18:1-CoA or C22:6-CoA

# Reference: doi:10.64898/2025.12.18.695077v1, “Stereospecific GPG acylation by CLN8 drives BMP biosynthesis and its loss leads to Batten disease” (biorxiv, 2025)
